What was measured:
[1] = Partitioning of DCOIT between polymer and supernatant of the treatment solution (centrifugation, HPLC); assay type: physicochemical; conditions: treatment solution (1500 ppm DCOIT) centrifuged at 100,000 RPM for 20 minutes
Description: An aliquot of well-mixed sample was weighed into a one-ounce screw cap vial. Into the vial was pipetted 20 mL of methanol. The contents were sonicated for one hour in an ultrasonic bath. The sample was filtered through a 0.2 μm filter into an auto-sampler for analysis. The sample preparation was analyzed using a reverse phase HPLC procedure with UV detection according to the wood analysis method below.
A 3 g sample of as is treatment solution was centrifuged at 10,000 RPM for 10 minutes to precipitate any gelled polymer or other particulates. No solid precipitated. The treatment solution sample was further centrifuged at 100,000 RPM for 20 minutes to precipitated the polymer. The precipitated polymer plug and the clear supernatant were analyzed for DCOIT by HPLC.

[2] = Leaching assay (modified AWPA E11-97); assay type: physicochemical; conditions: 1000 ppm, 3* (30% DCOIT in xylene); no polymer, no added surfactant
Description: In order to provide long term protection, the preservative needs to “fix” in the wood and not deplete too rapidly by volatilization or by leaching when the wood gets wet. It might be expected that enhanced penetration or enhanced movement of the preservative deep into the wood during treatment might also lead to reduced fixation of the organic wood preservative. However, it was discovered that the polymers used to provide enhanced penetration also effectively fix the organic biocide in the wood. Two different measures of fixation were used, a dislodgeable residue assay and a very aggressive leaching assay. The dislodgeable residue assay measures how much preservative can be removed or dislodged from the surface of the wood. This is a good assay to determine how much preservative is available or has migrated to the surface of the wood. […] All of the polymers provided exceptional control of dislodgeable residues except for one water soluble polymer that probably redissolves under the assay conditions. Another measure of fixation is resistance to leaching. A very aggressive leaching assay, the AWPA E11-97 assay was used. DCOIT is considered a low leaching organic biocide as is seen by the cumulative % of DCOIT leached in Table 6 with the xylene formulation which doesn't contain any added surfactant. Nonionic surfactants can facilitate the leaching of organic preservatives. […]

DCOIT in polymer plug [1]: 38,000 ppm
DCOIT in supernatant [1]: 34 ppm
Structure (SMILES): CCCCCCCCn1sc(Cl)c(Cl)c1=O [DCOIT, 4,5-dichloro-2-n-octyl-4-isothiazolin-3-one]
% Biocide Leached (cumulative) [2]: 4.4%

From patent publication US7740906B2, “Wood preservatives” (Rohm and Haas Company, priority 2005, dated 2010)
